IC50 data for 40 compounds are collected here from patent US6949571B2, “1,2-dihydropyridine compounds, process for preparation of the same and use thereof” (Eisai Co., Ltd., priority 2000, dated 2005).
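Note: primary rat embryonic cortical neurons grown on an astrocyte layer in 96-well plates, used after at least 8 to 10 days in culture, Fura2-AM fluorescence ratio at 340/380 nm excitation.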

The first assay has as its system AMPA receptor. Conditions: Table 1; primary culture of rat embryo cerebral cortex nerve cells, 2 μM AMPA, 1 μM MK-801.
Procedure: Cerebral cortex was cut out from the brain of rat of gestational 18 days and treated with trypsin and DNase to disperse the cells. The cells were flown by MEM containing 10% of serum, sown in a culture bottle and astrocytes were proliferated. The astrocytes were re-dispersed by trypsin and sown in a 96-well plate. After incubation for one week, it was confirmed that the astrocytes covered all over the bottom and then the nerve cells of cerebral cortex which was dispersed by the above method were sown thereupon. After incubation for 24 hours, the medium was changed, the incubation was carried out for one week and, after that, the medium was changed to that containing 1 μM of MK-801. Nerve cells which were incubated for not shorter than 8 to 10 days were used.
Calcium influx into the cells was measured using Fura2-AM which was a calcium-sensitive fluorescent dye. It was treated in a medium containing Fura2-AM for 1 hour, incorporated into the cells, exchanged to a Tyrode solution containing 1 μM MK-801 and stimulation was carried out using 2 μM AMPA. Change in the amount of calcium flown into the cells were measured as the change in the fluorescent intensity at the exciting wave length of 340/380 nm.
Regarding `O=c1c(-c2ccccc2Cl)cc(-c2ccccn2)cn1-c1ccc(F)cc1` [Example 99, 3-(2-Chlorophenyl)-5-(2-pyridyl)-1-(4-fluorophenyl)-1,2-dihydropyridin-2-one], half-maximal inhibition (IC50) required 100 nM. On the same count and under the same terms, then `N#Cc1ccccc1-c1cc(-c2ccccn2)cn(-c2ccc(C=O)cc2)c1=O` [Example 100, 3-(2-Cyanophenyl)-5-(2-pyridyl)-1-(4-formylphenyl)-1,2-dihydropyridin-2-one], with 400 nM; and `N#Cc1ccccc1-c1cc(-c2ccccn2)cn(-c2ccccc2C=O)c1=O` [Example 101, 3-(2-Cyanophenyl)-5-(2-pyridyl)-1-(2-formylphenyl)-1,2-dihydropyridin-2-one], with 200 nM; and `N#Cc1ccccc1-c1cc(-c2ccccn2)cn(-c2cccc(Cl)c2)c1=O` [Example 102, 3-(2-Cyanophenyl)-5-(2-pyridyl)-1-(3-chlorophenyl)-1,2-dihydropyridin-2-one], with 20 nM. On the same count and under the same terms, next, `Cc1cccc(-n2cc(-c3ccccn3)cc(-c3ccccc3C#N)c2=O)c1` [Example 103, 3-(2-Cyanophenyl)-5-(2-pyridyl)-1-(3-tolyl)-1,2-dihydropyridin-2-one]: 30 nM; `N#Cc1ccccc1-c1cc(-c2ccccn2)cn(-c2cccc(C(F)(F)F)c2)c1=O` [Example 104, 3-(2-Cyanophenyl)-5-(2-pyridyl)-1-(3-trifluoromethylphenyl)-1,2-dihydropyridin-2-one]: 200 nM; `N#Cc1ccccc1-c1cc(-c2ccccn2)cn(-c2ccsc2)c1=O` [Example 105, 3-(2-Cyanophenyl)-5-(2-pyridyl)-1-(thiophen-3-yl)-1,2-dihydropyridin-2-one]: 30 nM. Same read-out and setting: then `N#Cc1ccccc1-c1cc(-c2ccccn2)cn(-c2ccoc2)c1=O` [Example 106], with 70 nM; and `Cc1ccc(-n2cc(-c3ccccn3)cc(-c3ccccc3C#N)c2=O)cc1` [Example 107, 3-(2-Cyanophenyl)-5-(2-pyridyl)-1-(4-tolyl)-1,2-dihydropyridin-2-one], with 70 nM; and `N#Cc1ccccc1-c1cc(-c2ccccn2)cn(-c2ccc(C(F)(F)F)cc2)c1=O` [Example 108, 3-(2-Cyanophenyl)-5-(2-pyridyl)-1-(4-trifluoromethylphenyl)-1,2-dihydropyridin-2-one], with 30 nM. For `COc1ccc(-n2cc(-c3ccccn3)cc(-c3ccccc3C#N)c2=O)cn1` [Example 109, 3-(2-Cyanophenyl)-5-(2-pyridyl)-1-(2-methoxypyridyn-5-yl)-1,2-dihydropyridin-2-one], the IC50 – broadly, the midpoint of a concentration-inhibition curve – came to 10 nM. The same measure, in the same setting: then `N#Cc1ccccc1-c1cc(-c2ccccn2)cn(-c2ccccc2C#N)c1=O` [Example 110, 3-(2-Cyanophenyl)-5-(2-pyridyl)-1-(2-cyanophenyl)-1,2-dihydropyridin-2-one], with 2000 nM; and `N#Cc1ccccc1-c1cc(-c2ccccn2)cn(-c2cncnc2)c1=O` [Example 111, 3-(2-Cyanophenyl)-5-(2-pyridyl)-1-(pyrimidin-5-yl)-1,2-dihydropyridin-2-one], with 400 nM. On the same count and under the same terms, next, `N#Cc1ccccc1-c1cc(-c2ccccn2)cn(-c2ccc(N3CCCC3)nc2)c1=O` [Example 112, 3-(2-Cyanophenyl)-5-(2-pyridyl)-1-[2-(pyrrolidin-1-yl)-pyridin-5-yl]-1,2-dihydropyridin-2-one]: 600 nM; `N#Cc1ccccc1-c1cc(-c2ccccn2)cn(-c2ccc(N3CCN(Cc4ccccc4)CC3)nc2)c1=O` [Example 113, 3-(2-Cyanophenyl)-5-(2-pyridyl)-1-[2-(4-benzylpiperazin-1-yl)-pyridin-5-yl]-1,2-dihydropyridin-2-one]: 1200 nM; `N#Cc1ccccc1-c1cc(-c2ccccn2)cn(-c2ccc(OCCOCc3ccccc3)nc2)c1=O` [Example 114, 3-(2-Cyanophenyl)-5-(2-pyridyl)-1-(2-benzyloxyethoxypyridin-5-yl)-1,2-dihydropyridin-2-one]: 600 nM. Same read-out and setting: then `N#Cc1ccccc1-c1cc(-c2ccccn2)cn(-c2cncc(COCc3ccccc3)c2)c1=O` [Example 115, 3-(2-Cyanophenyl)-5-(2-pyridyl)-1-(3-benzyloxymethylpyridin-5-yl)-1,2-dihydropyridin-2-one], with 60 nM; and `CCSc1ccc(-n2cc(-c3ccccn3)cc(-c3ccccc3C#N)c2=O)cn1` [Example 116, 3-(2-Cyanophenyl)-5-(2-pyridyl)-1-(2-ethylthiopyridin-5-yl)-1,2-dihydropyridin-2-one], with 200 nM; and `N#Cc1ccccc1-c1cc(-c2ccccn2)cn(-c2ccncc2)c1=O` [Example 117, 3-(2-Cyanophenyl)-5-(2-pyridyl)-1-(4-pyridyl)-1,2-dihydropyridin-2-one], with 400 nM. In turn, `COc1cncc(-n2cc(-c3ccccn3)cc(-c3ccccc3C#N)c2=O)c1` [Example 118, 3-(2-Cyanophenyl)-5-(2-pyridyl)-1-(3-methoxypyridin-5-yl)-1,2-dihydropyridin-2-one] displayed an IC50 of 100 nM. The same measure, in the same setting: then `N#Cc1ccccc1-c1cc(-c2ccccn2)cn(-c2ccc(OCCO)nc2)c1=O` [Example 119, 3-(2-Cyanophenyl)-5-(2-pyridyl)-1-(2-hydroxyethoxypyridin-5-yl)-1,2-dihydropyridin-2-one], with 1700 nM. In the case of `N#Cc1ccccc1-c1cc(-c2ccccn2)cn(-c2ccc(Cl)nc2)c1=O` [Example 120, 3-(2-Cyanophenyl)-5-(2-pyridyl)-1-(2-chloropyridin-5-yl)-1,2-dihydropyridin-2-one], the IC50 came to 200 nM. The same measure, in the same setting: next, `CN1CCN(c2ccc(-n3cc(-c4ccccn4)cc(-c4ccccc4C#N)c3=O)cn2)CC1` [Example 121, 3-(2-Cyanophenyl)-5-(2-pyridyl)-1-[2-(4-methylpiperazin-1-yl)-pyridin-5-yl]-1,2-dihydropyridin-2-one]: 600 nM; `N#Cc1ccccc1-c1cc(-c2ccccn2)cn(-c2ccc(F)nc2)c1=O` [Example 123, 3-(2-Cyanophenyl)-5-(2-pyridyl)-1-(2-fluoropyridin-5-yl)-1,2-dihydropyridin-2-one]: 200 nM. Compound `CCc1ccc(-n2cc(-c3ccccn3)cc(-c3ccccc3C#N)c2=O)cn1` [Example 124, 3-(2-Cyanophenyl)-5-(2-pyridyl)-1-(2-ethylpyridine-5-yl)-1,2-dihydropyridin-2-one] yielded an IC50 of 700 nM. The same measure, in the same setting: then `O=c1c(-c2ccccc2)cc(-c2ccccn2)cn1-c1cccnc1` [Example 127, 3-Phenyl-5-(2-pyridyl)-1-(3-pyridyl)-1,2-dihydropyridin-2-one], with 400 nM; and `COc1ccccc1-c1cc(-c2ccccn2)cn(-c2cccnc2)c1=O` [Example 129, 3-(2-Methoxyphenyl)-5-(2-pyridyl)-1-(3-pyridyl)-1,2-dihydropyridin-2-one], with 2600 nM. The compound `O=Cc1sccc1-c1cc(-c2ccccn2)cn(-c2cccnc2)c1=O` [Example 130, 3-(2-Formylthiophen-3-yl)-5-(2-pyridyl)-1-(3-pyridyl)-1,2-dihydropyridin-2-one] gave an IC50 of 900 nM. On the same count and under the same terms, next, `O=c1c(-c2ccc(Cl)cc2Cl)cc(-c2ccccn2)cn1-c1cccnc1` [Example 131, 3-(2.4-Dichlorophenyl)-5-(2-pyridyl)-1-(3-pyridyl)-1,2-dihydropyridin-2-one]: 3700 nM. On the same count and under the same terms, next, `O=c1c(-c2ccccc2C(F)(F)F)cc(-c2ccccn2)cn1-c1cccnc1` [Example 132, 3-(2-Trifluoromethylphenyl)-5-(2-pyridyl)-1-(3-pyridyl)-1,2-dihydropyridin-2-one]: 3100 nM. The same measure, in the same setting: then `O=c1c(-c2ccsc2)cc(-c2ccccn2)cn1-c1cccnc1` [Example 133, 3-(Thiophen-3-yl)-5-(2-pyridyl)-1-(3-pyridyl)-1,2-dihydropyridin-2-one], with 300 nM.

Still in this assay, the particulars now being: Table 2; suppression of AMPA-induced calcium influx into nerve cells.
For the compound `Cc1cccc(C)c1-c1cc(-c2ccccn2)cn(-c2cccnc2)c1=O` [Example 135, 3-(2,6-Dimethylphenyl)-5-(2-pyridyl)-1-(3-pyridyl)-1,2-dihydropyridin-2-one], the IC50 turned out to be 40 nM. Still for that read-out and setting: next, `NC(=O)c1ccccc1-c1cc(-c2ccccn2)cn(-c2ccccc2)c1=O` [Example 140, 3-(2-Aminocarbonylphenyl)-5-(2-pyridyl)-1-phenyl-1,2-dihydropyridin-2-one]: 6600 nM; `O=c1c(-c2ccccc2O)cc(-c2ccccn2)cn1-c1ccccc1` [Example 141, 3-(2-Hydroxyphenyl)-5-(2-pyridyl)-1-phenyl-1,2-dihydropyridin-2-one]: 700 nM.

Take `O=c1c(-c2ccccc2O)cc(-c2ccccn2)cn1-c1ccc(F)cc1` [Example 142, 3-(2-Hydroxyphenyl)-5-(2-pyridyl)-1-(4-fluorophenyl)-1,2-dihydropyridin-2-one]: the IC50 was determined as 2200 nM. Still for that read-out and setting: next, `O=c1c(-c2ccccc2Cl)cc(-c2ccccn2)cn1-c1cccc(O)c1` [Example 143, 3-(2-Chlorophenyl)-5-(2-pyridyl)-1-(3-hydroxyphenyl)-1,2-dihydropyridin-2-one]: 100 nM; `CN(C)CCOc1cccc(-n2cc(-c3ccccn3)cc(-c3ccccc3Cl)c2=O)c1` [Example 144, 3-(2-Chlorophenyl)-5-(2-pyridyl)-1-(3-dimethylaminoethoxyphenyl)-1,2-dihydropyridin-2-one]: 10 nM; `O=c1c(-c2ccccc2CO)cc(-c2ccccn2)cn1-c1ccccc1` [Example 147, 3-(2-Hydroxymethylphenyl)-5-(2-pyridyl)-1-phenyl-1,2-dihydropyridin-2-one]: 1600 nM.

In the case of `N#Cc1ccccc1-c1cc(-c2ccccn2)cn(-c2ccc(CO)cc2)c1=O` [Example 148, 3-(2-Cyanophenyl)-5-(2-pyridyl)-1-(4-hydroxymethylphenyl)-1,2-dihydropyridin-2-one], the IC50 came to 800 nM.

`N#Cc1ccccc1-c1cc(-c2ccccn2)cn(-c2ccccc2CO)c1=O` [Example 149, 3-(2-Cyanophenyl)-5-(2-pyridyl)-1-(2-hydroxymethylphenyl)-1,2-dihydropyridin-2-one]: the IC50 was found to be 100 nM.
